In ChEMBL document CHEMBL1201862, “PubChem BioAssay data set” (2004):
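Five compound concentrations were applied to cells in 96-well plates for 48 hours; endpoints were derived by simple linear interpolation of the resulting dose-response curve. Here, GI50 denotes the concentration required for 50% inhibition of growth.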 Calls of active or inactive are those of the source. Rule as the data show it: active = GI50 up to about 1.1 µM and inactive = higher.

Tests used:
Experiment in all cases: NCI anticancer screen, dose series, 48 h
786-0 = test system: 786-0
COLO 205 = test system: COLO 205
HOP-62 = test system: HOP-62
LOX IMVI = test system: LOX IMVI
NCI-H226 = test system: NCI-H226
NCI-H460 = test system: NCI-H460
OVCAR-3 = test system: OVCAR-3
SK-MEL-2 = test system: SK-MEL-2
SK-OV-3 = test system: SK-OV-3
SNB-19 = test system: SNB-19
SR = test system: SR
SW-620 = test system: SW-620
TK-10 = test system: TK-10
UO-31 = test system: UO-31

Measured: GI50

CCN(CC)CCSc1c2ccccc2nc2cc(NCC(=O)Nc3ccccc3-c3ccccc3NC(=O)CNc3ccc4c(SCCN(CC)CC)c5ccccc5nc4c3)ccc12
inactive: 786-0 > 92.9 µM | COLO 205 > 35.2 µM | HOP-62 > 100 µM | LOX IMVI > 76.6 µM | NCI-H226 > 100 µM | NCI-H460 > 100 µM | OVCAR-3 > 100 µM | SK-MEL-2 > 100 µM | SK-OV-3 > 100 µM | SNB-19 > 100 µM | SR 34.1 µM | SW-620 > 100 µM | TK-10 > 100 µM | UO-31 > 100 µM

O=C(O)c1ccccc1NC(=O)C1CCCCC1
inactive: 786-0 > 100 µM | COLO 205 > 100 µM | HOP-62 > 100 µM | LOX IMVI > 100 µM | NCI-H226 > 100 µM | NCI-H460 66.1 µM | OVCAR-3 > 100 µM | SK-MEL-2 > 100 µM | SK-OV-3 > 100 µM | SNB-19 > 100 µM | SW-620 > 100 µM | TK-10 > 100 µM | UO-31 > 100 µM

COC(=O)/C(=N\NC(=O)C[N+](C)(C)C)C(C(=O)OC)C(=O)C(=O)Nc1ccccc1C(N)=O (stereo unspecified)
inactive: 786-0 > 100 µM | COLO 205 > 100 µM | HOP-62 > 100 µM | LOX IMVI > 100 µM | NCI-H226 > 100 µM | NCI-H460 > 100 µM | OVCAR-3 > 100 µM | SK-MEL-2 > 100 µM | SK-OV-3 > 100 µM | SNB-19 > 100 µM | SR > 100 µM | SW-620 > 100 µM | TK-10 > 100 µM | UO-31 > 100 µM

C1=C2/CC[C@H](Sc3ccccc3)C2C2(CCCCC/1)OCCO2 (stereo partly specified)
inactive: 786-0 42.4 µM | COLO 205 21.6 µM | HOP-62 19.3 µM | LOX IMVI 15.2 µM | NCI-H226 23.6 µM | NCI-H460 21.5 µM | OVCAR-3 18.7 µM | SK-MEL-2 15.8 µM | SNB-19 > 100 µM | SR 10.7 µM | SW-620 28.1 µM | TK-10 83.9 µM

CN(C)c1ccc2c(=O)c3ccccc3oc2n1
inactive: 786-0 > 100 µM | COLO 205 > 100 µM | HOP-62 56.6 µM | LOX IMVI > 100 µM | NCI-H460 > 100 µM | OVCAR-3 91.6 µM | SK-MEL-2 > 100 µM | SK-OV-3 > 100 µM | SNB-19 > 100 µM | SW-620 > 100 µM | TK-10 > 100 µM | UO-31 69.2 µM

Cn1ccnc1CCc1ccc(Cl)c(Cl)c1
inactive: 786-0 > 100 µM | COLO 205 > 100 µM | HOP-62 > 100 µM | LOX IMVI > 100 µM | NCI-H226 > 100 µM | NCI-H460 > 100 µM | OVCAR-3 74.1 µM | SK-MEL-2 > 100 µM | SK-OV-3 > 100 µM | SR > 100 µM | SW-620 > 100 µM | TK-10 > 100 µM | UO-31 50.5 µM

C[C@@H]1OC2(O)[C@H]3CCCN3S(=O)(=O)CCN2C1=O (stereo partly specified)
inactive: 786-0 > 100 µM | COLO 205 > 100 µM | HOP-62 > 100 µM | LOX IMVI > 100 µM | NCI-H226 > 100 µM | NCI-H460 > 100 µM | OVCAR-3 > 100 µM | SK-OV-3 > 100 µM | SNB-19 > 100 µM | SR > 100 µM | SW-620 > 100 µM | TK-10 > 100 µM | UO-31 > 100 µM
